In ChEMBL document CHEMBL1201862, “PubChem BioAssay data set” (2004):
Calls of active or inactive are those of the source.

What was measured:
Mucolipin-3 = biological target: T1, Mucolipin-3 (Homo sapiens, UniProt Q8TDD5); experiment: Dose response cell-based high-throughput screening assay for agonists of the transient receptor potential channel ML3 (TRPML3). [Related pubchem assays: 1526, 1424, 1448 ]; format: functional
T1 sequence (Q8TDD5 whole entry): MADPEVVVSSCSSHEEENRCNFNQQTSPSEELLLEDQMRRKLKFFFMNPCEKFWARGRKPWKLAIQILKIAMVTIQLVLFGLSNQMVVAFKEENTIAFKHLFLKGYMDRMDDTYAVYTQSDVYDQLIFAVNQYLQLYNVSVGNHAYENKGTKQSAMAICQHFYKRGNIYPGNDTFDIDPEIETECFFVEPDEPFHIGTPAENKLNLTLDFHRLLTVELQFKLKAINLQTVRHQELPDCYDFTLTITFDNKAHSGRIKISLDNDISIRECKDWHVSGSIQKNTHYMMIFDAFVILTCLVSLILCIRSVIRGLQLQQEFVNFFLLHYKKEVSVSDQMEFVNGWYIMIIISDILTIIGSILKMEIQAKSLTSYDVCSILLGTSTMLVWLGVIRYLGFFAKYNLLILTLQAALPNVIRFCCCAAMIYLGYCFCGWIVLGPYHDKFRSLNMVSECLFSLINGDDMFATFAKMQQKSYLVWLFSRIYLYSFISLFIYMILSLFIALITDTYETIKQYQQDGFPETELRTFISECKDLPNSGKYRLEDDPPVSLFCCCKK

Ion channel NompC = Ion channel NompC (Danio rerio, UniProt Q7T1G6); experiment: Fluorescence counterscreen assay for TRPML3 agonists: dose response cell-based high-throughput screening assay to identify agonists of the transient receptor potential channel N1 (TRPN1). [Related pubchem assays: 1526, 1424, 1448 ]; format: functional
Sequence of Ion channel NompC (Q7T1G6 whole entry): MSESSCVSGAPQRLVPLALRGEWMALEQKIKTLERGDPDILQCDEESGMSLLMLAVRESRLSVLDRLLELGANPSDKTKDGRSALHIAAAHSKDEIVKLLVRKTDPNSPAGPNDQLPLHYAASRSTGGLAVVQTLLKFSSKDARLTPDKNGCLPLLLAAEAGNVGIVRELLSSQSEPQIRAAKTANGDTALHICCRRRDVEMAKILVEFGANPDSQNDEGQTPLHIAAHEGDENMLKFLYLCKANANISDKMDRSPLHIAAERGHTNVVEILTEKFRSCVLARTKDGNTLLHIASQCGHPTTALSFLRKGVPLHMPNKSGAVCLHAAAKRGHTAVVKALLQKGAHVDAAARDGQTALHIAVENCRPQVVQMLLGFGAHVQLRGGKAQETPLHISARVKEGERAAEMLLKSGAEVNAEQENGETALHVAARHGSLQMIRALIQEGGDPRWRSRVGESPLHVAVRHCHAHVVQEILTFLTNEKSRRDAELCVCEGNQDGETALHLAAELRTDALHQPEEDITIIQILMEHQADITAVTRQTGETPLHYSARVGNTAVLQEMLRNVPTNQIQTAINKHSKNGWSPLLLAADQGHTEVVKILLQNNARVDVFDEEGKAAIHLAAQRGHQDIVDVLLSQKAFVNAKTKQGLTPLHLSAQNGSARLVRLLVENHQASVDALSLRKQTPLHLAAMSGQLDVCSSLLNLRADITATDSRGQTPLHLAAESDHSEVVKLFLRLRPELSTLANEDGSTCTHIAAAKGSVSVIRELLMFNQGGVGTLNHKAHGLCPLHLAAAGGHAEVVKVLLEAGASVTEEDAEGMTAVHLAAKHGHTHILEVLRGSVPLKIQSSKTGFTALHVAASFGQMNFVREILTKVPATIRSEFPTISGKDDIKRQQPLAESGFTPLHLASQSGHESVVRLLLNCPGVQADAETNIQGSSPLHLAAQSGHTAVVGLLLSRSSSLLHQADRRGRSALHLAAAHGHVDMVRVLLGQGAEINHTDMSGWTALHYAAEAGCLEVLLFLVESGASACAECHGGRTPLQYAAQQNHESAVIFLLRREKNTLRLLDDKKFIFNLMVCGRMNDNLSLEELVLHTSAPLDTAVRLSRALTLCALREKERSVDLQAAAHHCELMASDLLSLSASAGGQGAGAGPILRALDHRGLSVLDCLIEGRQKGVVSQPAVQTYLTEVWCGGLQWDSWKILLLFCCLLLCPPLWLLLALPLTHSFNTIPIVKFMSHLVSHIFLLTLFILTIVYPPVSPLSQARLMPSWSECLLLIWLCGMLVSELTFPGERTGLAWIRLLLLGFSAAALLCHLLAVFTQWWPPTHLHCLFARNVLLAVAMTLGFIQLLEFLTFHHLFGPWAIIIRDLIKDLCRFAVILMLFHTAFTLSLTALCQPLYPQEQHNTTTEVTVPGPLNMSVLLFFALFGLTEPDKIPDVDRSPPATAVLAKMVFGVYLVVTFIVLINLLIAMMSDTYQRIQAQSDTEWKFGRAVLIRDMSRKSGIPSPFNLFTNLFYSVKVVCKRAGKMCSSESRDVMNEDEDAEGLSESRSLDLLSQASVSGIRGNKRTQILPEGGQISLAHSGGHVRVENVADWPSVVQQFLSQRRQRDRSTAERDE

[1] = biological target: FAD-linked sulfhydryl oxidase ALR (Homo sapiens, UniProt P55789); experiment: inhibitors of human ALR sulfhydryl oxidase, dose response, biochemical, H2O2 detection, luminescence, cherry-pick (AID 493248)
Sequence of FAD-linked sulfhydryl oxidase ALR (P55789 whole entry): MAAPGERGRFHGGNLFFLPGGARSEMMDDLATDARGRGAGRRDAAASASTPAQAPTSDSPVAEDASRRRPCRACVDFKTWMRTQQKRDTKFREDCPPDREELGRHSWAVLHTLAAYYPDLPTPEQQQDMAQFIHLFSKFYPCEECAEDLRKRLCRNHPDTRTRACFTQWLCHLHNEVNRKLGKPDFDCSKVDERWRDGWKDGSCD

Leucine aminopeptidase = biological target: T2, Leucine aminopeptidase (Plasmodium falciparum 3D7, UniProt Q8IL11); experiment: P. falciparum M17LAP inhibitors, primary screen, biochemical, fluorogenic H-Leu-NHMec substrate, 1536-well (AID 1619); format: functional
T2 sequence (Q8IL11 whole entry): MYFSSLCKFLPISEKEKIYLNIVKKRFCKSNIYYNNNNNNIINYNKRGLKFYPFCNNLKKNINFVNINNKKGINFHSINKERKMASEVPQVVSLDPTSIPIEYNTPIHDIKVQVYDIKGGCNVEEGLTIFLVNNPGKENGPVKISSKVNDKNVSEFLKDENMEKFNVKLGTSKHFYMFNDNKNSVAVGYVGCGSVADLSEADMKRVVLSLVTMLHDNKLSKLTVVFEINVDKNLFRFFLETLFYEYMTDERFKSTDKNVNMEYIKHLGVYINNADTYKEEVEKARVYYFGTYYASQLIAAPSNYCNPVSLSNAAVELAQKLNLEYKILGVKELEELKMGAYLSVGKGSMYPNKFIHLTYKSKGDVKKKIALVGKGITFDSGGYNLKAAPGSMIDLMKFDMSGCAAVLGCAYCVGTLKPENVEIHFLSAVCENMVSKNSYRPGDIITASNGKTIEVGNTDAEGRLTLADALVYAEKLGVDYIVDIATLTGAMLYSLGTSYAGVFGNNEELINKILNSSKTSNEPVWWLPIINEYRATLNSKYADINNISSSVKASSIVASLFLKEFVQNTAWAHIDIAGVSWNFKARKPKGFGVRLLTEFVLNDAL

[2] = biological target: T3, DNA repair protein RAD52 homolog (Homo sapiens, UniProt P43351); format: functional, biochemical
T3 sequence (P43351 whole entry): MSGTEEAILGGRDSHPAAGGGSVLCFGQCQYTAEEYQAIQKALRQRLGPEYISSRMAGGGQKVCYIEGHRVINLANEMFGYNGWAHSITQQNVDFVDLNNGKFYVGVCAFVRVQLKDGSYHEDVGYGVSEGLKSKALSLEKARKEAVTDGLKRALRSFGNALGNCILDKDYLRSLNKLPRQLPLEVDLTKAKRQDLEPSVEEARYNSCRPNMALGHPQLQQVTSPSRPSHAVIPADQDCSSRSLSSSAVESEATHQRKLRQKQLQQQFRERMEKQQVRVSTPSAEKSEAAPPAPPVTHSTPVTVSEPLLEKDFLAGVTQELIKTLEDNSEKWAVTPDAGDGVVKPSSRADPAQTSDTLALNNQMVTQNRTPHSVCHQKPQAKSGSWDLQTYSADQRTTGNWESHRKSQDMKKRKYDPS

[3] = cytotoxicity toward NIH3T3 fibroblasts, dose response, counter-screen, cell-based, ATP luminescence, mouse fibroblasts (AID 2010); format: functional;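 also: cells exposed to compound for about 90 hours before reading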
[4] = A Cell Based Secondary Assay To Explore Cytotoxicity of Compounds that Sensitize Mycobacterium Tuberculosis to Beta-Lactam Antibiotics.; format: functional
[5] = inhibitors of intracellular T. cruzi replication, confirmation, NIH3T3 host cells, beta-gal luminescence (AID 2044); format: functional, cell-based;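 also: intracellular parasites grown in NIH/3T3 mouse fibroblasts as host cells; luminescent beta-galactosidase reporter signal from transgenic T. cruzi replicating inside host cells; inhibitors lower the luminescence signal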
INS1 = experiment: beta cell apoptosis inhibitors, cytokine rescue, dose response, luminescence, retest (AID 449756); format: functional, cell-based; conditions: Rattus norvegicus;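 also: cell death triggered by IL-1 beta plus TNF-alpha plus IFN-gamma mixture; protective hits raise ATP signal compared with cytokine alone wells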
[6] = biological target: T4, Ubiquitin-conjugating enzyme E2 N (Homo sapiens, UniProt P61088); format: functional;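 also: Dose-response confirmation in a TR-FRET assay detecting UBC13-driven polyubiquitin chain formation, inhibition measured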
T4 sequence (P61088 whole entry): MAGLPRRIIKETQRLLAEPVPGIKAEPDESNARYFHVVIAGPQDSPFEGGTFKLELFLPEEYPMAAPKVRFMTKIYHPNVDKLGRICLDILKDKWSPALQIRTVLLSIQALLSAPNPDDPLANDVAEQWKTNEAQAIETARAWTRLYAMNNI

[7] = biological target: G-protein coupled receptor 55 (Homo sapiens, UniProt Q9Y2T6); experiment: GPR55 antagonists blocking LPI-driven arrestin recruitment, primary screen, imaging, U2OS, beta-arrestin-GFP, LPI agonist (AID 2013); format: functional;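 also: antagonist potency measured as reduced agonist-driven arrestin aggregation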
Sequence of G-protein coupled receptor 55 (Q9Y2T6 whole entry): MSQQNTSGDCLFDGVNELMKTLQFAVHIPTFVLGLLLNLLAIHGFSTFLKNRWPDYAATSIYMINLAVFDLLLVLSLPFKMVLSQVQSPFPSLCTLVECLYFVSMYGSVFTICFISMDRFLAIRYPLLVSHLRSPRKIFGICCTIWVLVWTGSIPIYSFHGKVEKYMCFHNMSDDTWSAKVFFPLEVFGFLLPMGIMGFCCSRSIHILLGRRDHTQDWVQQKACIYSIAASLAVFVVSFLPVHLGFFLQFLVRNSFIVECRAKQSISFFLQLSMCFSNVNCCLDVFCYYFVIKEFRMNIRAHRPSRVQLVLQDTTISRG

[8] = HEp-2 cell cytotoxicity, dose response, cytotoxicity control for RSV inhibitor project, HTS (AID 2410); format: functional; conditions: human respiratory syncytial virus
Cytochrome P450 2D6 = Cytochrome P450 2D6 (Homo sapiens, UniProt P10635);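 also: CYP2D6 member of a cytochrome P450 panel assay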
Sequence of Cytochrome P450 2D6 (P10635 whole entry): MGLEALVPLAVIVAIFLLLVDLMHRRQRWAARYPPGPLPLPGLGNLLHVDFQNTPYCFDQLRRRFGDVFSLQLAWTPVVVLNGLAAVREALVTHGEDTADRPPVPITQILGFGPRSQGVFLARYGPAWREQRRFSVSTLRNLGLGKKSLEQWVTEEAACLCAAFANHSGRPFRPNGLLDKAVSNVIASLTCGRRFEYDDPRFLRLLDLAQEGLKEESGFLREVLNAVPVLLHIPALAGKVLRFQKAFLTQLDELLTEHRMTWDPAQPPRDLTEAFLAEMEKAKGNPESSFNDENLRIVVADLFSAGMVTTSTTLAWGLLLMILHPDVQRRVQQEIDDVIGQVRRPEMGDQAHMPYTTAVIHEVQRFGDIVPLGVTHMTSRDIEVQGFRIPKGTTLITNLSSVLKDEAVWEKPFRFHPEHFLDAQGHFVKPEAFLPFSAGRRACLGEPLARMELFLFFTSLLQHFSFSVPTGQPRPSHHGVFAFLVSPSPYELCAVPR

CAAX prenyl protease 2 = biological target: T5, CAAX prenyl protease 2 (Saccharomyces cerevisiae S288c, UniProt Q03530); format: biochemical
T5 sequence (Q03530 whole entry): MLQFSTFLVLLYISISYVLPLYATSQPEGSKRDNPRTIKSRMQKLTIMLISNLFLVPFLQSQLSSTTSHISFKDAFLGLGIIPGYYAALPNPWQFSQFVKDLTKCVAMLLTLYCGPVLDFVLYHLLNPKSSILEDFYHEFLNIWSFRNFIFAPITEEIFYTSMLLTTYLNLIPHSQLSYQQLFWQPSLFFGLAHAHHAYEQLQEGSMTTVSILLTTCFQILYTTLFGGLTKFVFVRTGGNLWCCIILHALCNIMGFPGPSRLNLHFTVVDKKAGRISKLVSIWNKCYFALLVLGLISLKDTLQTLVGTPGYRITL

[9] = biological target: T6, Heat shock factor protein 1 (Mus musculus, UniProt P38532); experiment: inhibition of MG132-induced HSE-luciferase signal, confirmation, cell-based, NIH3T3, luminescence, dose retest (AID 2382); format: functional;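 also: NIH3T3 fibroblasts with HSF1-driven luciferase reporter stressed by proteasome inhibitor MG132; luminescence from HSF1-driven luciferase expression after 8 hours of MG132 stress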
T6 sequence (P38532 whole entry): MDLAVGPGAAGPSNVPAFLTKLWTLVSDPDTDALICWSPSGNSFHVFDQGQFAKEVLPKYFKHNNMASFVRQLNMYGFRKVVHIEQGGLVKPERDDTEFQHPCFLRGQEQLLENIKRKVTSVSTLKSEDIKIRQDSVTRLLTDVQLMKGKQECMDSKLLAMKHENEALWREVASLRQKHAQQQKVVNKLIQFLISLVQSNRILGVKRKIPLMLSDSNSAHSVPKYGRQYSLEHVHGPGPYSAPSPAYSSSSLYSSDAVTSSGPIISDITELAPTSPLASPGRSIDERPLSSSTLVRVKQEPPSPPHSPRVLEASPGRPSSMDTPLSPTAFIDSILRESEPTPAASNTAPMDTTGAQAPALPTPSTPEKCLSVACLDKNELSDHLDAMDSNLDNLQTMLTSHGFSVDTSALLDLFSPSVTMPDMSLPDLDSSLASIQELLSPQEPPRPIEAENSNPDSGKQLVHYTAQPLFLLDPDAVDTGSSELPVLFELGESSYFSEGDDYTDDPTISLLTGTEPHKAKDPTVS

[10] = biological target: DNA dC->dU-editing enzyme APOBEC-3A (Homo sapiens, UniProt P31941); experiment: Dose Response confirmation of small molecule APOBEC3A DNA Deaminase Inhibitors via a fluorescence-based single-stranded DNA deaminase assay. [Related pubchem assays (depositor defined):AID493011, AID493024]; format: functional
Sequence of DNA dC->dU-editing enzyme APOBEC-3A (P31941 whole entry): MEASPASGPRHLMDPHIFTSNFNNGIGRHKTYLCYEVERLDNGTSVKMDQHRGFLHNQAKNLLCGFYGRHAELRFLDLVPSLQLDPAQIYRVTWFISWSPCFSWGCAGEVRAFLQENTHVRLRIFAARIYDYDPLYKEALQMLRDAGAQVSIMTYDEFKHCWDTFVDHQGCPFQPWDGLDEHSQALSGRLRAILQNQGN

[11] = biological target: DNA dC->dU-editing enzyme APOBEC-3G (Homo sapiens, UniProt Q9HC16); format: functional;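 also: Dose-response counterscreen measuring inhibition of APOBEC3G DNA deaminase activity, run while confirming APOBEC3A inhibitors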
Sequence of DNA dC->dU-editing enzyme APOBEC-3G (Q9HC16 whole entry): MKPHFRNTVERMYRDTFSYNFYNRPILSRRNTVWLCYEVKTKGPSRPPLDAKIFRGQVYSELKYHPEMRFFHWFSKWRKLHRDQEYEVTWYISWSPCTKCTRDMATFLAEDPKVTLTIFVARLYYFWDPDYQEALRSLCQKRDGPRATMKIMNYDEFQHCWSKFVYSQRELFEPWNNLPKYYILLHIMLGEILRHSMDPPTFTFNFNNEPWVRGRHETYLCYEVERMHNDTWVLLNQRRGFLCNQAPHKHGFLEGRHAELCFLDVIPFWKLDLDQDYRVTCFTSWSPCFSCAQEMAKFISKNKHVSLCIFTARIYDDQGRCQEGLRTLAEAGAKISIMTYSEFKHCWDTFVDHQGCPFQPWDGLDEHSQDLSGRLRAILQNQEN

Estrogen receptor = biological target: T7, Estrogen receptor (Homo sapiens, UniProt P03372);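 also: potency for inhibiting coactivator peptide recruitment to the receptor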
T7 sequence (P03372 whole entry): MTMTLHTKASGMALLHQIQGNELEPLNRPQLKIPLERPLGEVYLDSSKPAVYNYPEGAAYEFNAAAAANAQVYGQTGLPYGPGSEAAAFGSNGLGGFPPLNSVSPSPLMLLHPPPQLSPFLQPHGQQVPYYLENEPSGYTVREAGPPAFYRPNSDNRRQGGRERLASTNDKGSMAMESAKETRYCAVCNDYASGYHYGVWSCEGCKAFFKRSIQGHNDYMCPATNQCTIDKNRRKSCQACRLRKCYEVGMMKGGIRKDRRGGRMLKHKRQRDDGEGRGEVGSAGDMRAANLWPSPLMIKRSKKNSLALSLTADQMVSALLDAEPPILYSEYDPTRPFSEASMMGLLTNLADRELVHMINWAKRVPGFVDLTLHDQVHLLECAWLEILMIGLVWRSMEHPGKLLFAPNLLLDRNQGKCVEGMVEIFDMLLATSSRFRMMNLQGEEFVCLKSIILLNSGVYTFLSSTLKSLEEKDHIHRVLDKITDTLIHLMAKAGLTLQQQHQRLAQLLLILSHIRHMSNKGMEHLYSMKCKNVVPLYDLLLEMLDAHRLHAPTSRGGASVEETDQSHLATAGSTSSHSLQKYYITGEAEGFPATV

[12] = biological target: T8, Calpain-2 catalytic subunit (Sus scrofa, UniProt P43367); experiment: pig calpain II inhibitor potency, dose response, biochemical, fluorogenic peptide substrate (AID 1420); format: functional
T8 sequence (P43367 whole entry): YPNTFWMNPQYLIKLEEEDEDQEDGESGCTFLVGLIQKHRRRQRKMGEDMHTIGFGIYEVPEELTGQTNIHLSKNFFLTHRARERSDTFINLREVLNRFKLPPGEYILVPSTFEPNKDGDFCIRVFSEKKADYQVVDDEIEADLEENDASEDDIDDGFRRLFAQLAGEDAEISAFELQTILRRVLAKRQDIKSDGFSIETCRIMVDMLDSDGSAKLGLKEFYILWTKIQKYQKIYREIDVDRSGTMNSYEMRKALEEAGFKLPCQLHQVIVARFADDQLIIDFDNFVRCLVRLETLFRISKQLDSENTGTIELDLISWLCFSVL

H9c2 = experiment: cells; format: functional, cell-based; conditions: Rattus norvegicus, H9c2, Myocardium;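 also: confirmatory concentration-response retest of ultra-high-throughput screening hits for modulation of myocardial damage; cell death induced by hydrogen peroxide oxidative stress; compound pretreatment for 60 min then peroxide exposure for 2 h; potency is for protecting the cells against peroxide damage rather than for killing them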

Cc1cc(C)c(S(=O)(=O)c2c(C)cccc2C)c(OCC(C)C)n1
EC50 (Mucolipin-3): 4.35 µM (active)
EC50 (Ion channel NompC): > 29.9 µM (not active)

Cc1[nH]c2ccccc2c1N=Nc1cccc(C(=O)O)c1
AC50 [1]: 0.663 µM (active)
IC50 (Leucine aminopeptidase): 80.8 µM (active)

Cc1ccc(C(=O)N/C(=C\c2ccc(-c3ccc(Cl)cc3)o2)C(=O)NCCCN(C)C)cc1
AC50 [2]: 18.5 µM (active)
EC50 [3]: > 30 µM (not active)
CC50 [4]: 11.2 µM (active)
EC50 [5]: 1.63 µM (active)
AC50 (INS1): 7.74 µM (active)
IC50 [6]: > 20 µM (inactive)

CCc1ccccc1N(CC)C(=O)CCc1nc(-c2ccc(C)cc2)no1
IC50 [7]: 1.06 µM (active)

O=S(=O)(c1ccccc1)N1CCC(c2nc(O)c3nnn(Cc4ccc5c(c4)OCCO5)c3n2)CC1
CC50 [8]: 28.4 µM (active)
IC50 (cells): 18.4 µM (active)

O=C(CCNc1ccc(F)cc1)c1cccc([N+](=O)[O-])c1
CC50 [4]: > 40 µM (active)

C/C(N)=C(/C#N)C(=O)COC(=O)c1cccc(C)c1O
IC50 (cells): 9.45 µM (active)

O=C(CN1CCN(S(=O)(=O)c2ccc(F)cc2)CC1)Nc1ccc(Cl)c(C(F)(F)F)c1
CC50 [8]: 4.99 µM (active)
EC50 (Mucolipin-3): 3.5 µM (active)
AC50 (Cytochrome P450 2D6): 39.8 µM (inconclusive)
EC50 (Ion channel NompC): > 29.9 µM (not active)

O=C(N/N=C/c1ccccc1C(=O)O)c1ccc(COc2cccc3cccnc23)cc1
IC50 (Leucine aminopeptidase): 18.4 µM (active)

CC1CCN(Cc2c(C(=O)N/N=C/c3cccc(C(F)(F)F)c3)nnn2-c2nonc2N)CC1
AC50 (CAAX prenyl protease 2): 0.254 µM (active)

Cc1cccc(C)c1-n1c(C)cc(/C=C2\NC(=O)NC2=O)c1C
EC50 [9]: > 195 µM (not active)
CC50 [8]: 24.6 µM (active)
IC50 (cells): 8.7 µM (active)

CCn1c(SCC(=O)NC2CCCCC2)nc2ccccc2c1=O
IC50 [10]: 5.15 µM (active)
IC50 [11]: 4.97 µM (active)

CCN1C(=NCCN2CCOCC2)N[C@@H](c2ccccc2)C(C(=O)OC)=C1C
IC50 [10]: 4.2 µM (active)
IC50 [11]: 4.54 µM (active)

COc1ccc(C)cc1-n1nnnc1SCC(=O)NC(=O)NCc1ccco1
IC50 (Estrogen receptor): 9.48 µM (active)

CN1CCC(N(C)S(=O)(=O)c2ccc(NC(=O)COc3ccc(Br)cc3Cl)cc2)CC1
IC50 [10]: 10.4 µM (active)
IC50 [11]: 14.2 µM (active)

COc1ccc(OC)c(S(=O)(=O)N2CCCc3ccccc32)c1
EC50 (Mucolipin-3): 3.58 µM (active)
EC50 (Ion channel NompC): > 29.9 µM (not active)

COc1ccc(-n2nc(C(=O)NCC(=O)N(C)Cc3ccccc3)c3ccccc3c2=O)cc1
AC50 (CAAX prenyl protease 2): 70.8 µM (active)

O=S(=O)(N1CCCCC1)N1CCN(c2cc(Cl)ccc2Cl)CC1
EC50 (Mucolipin-3): 2.07 µM (active)
EC50 (Ion channel NompC): > 29.9 µM (not active)
IC50 [12]: 4.07 µM (not active)

COc1ccc(Br)cc1/C=N/NC(=O)CNC(=O)/C=C/c1ccccc1
CC50 [4]: 32.1 µM (active)
IC50 (H9c2): 15.3 µM (active)
